What was measured:
[1] = tested on: apolipoprotein E4 (ApoE4) Alzheimer's disease yeast model; assay: ApoE4 yeast model rescue (growth, OD600); assay type: cell-based, Saccharomyces cerevisiae; details: 12-point dose
Excerpt: Strain ApoE-mga2Δ was generated by amplifying 1000 base pairs (bp) upstream and downstream of the MGA2 ORF in a strain in which MGA2 was deleted using a G418 (GENETICIN®) resistance cassette (kanMX) (Piotrowski et al. Proc. Natl. Acad. Sci. USA 112(12):E1490-1497, 2015) and transforming the resulting deletion cassette into the ApoE4 strain in the BY4741 (ATCC 201388) genetic background. The ApoE strain is described, for example, in International Patent Application Publication No. WO 2016/040794, which is incorporated herein by reference in its entirety.
All compound profiling experiments were performed using the same basic protocol. Different genetic backgrounds (e.g., gene deletions) or conditions (e.g., addition of oleic and palmitoleic acid) were replaced as indicated below.
Yeast were cultured using standard techniques in complete synthetic media (CSM) and yeast nitrogen base supplemented with 2% (w/v) carbon source (glucose, raffinose, or galactose) to regulate the expression of the toxic disease protein. An initial starter culture was inoculated in 3 mL CSM-Glucose media and incubated overnight in a 30° C. shaker incubator (225 rpm). […]
(§1) After yeast delivery, assay plates were incubated under humidified conditions at 30° C. for 24 to 40 h. […] The growth of yeast was monitored by reading the OD600 of each well using a microplate reader (Perkin Elmer EnVision™). […]

Ole1/SCD = assay: Yeast growth inhibition in control / wild-type condition (OD600); assay type: cell-based, Saccharomyces cerevisiae; details: ApoE4 strain, non-inducing conditions, raffinose
Excerpt: Strain GMYF was constructed from the ABC16/Green monster strain described in Suzuki et al. Nat. Methods 8(2):159-164, 2011. In this strain, YAP1 was deleted using a HIS3-MX6 cassette, and FLR1 was deleted using a NAT-MX6 cassette using standard methods. The knockout cassettes were PCR-amplified from plasmid templates (see, e.g., Bahler et al. Yeast 14(10):943-951, 1998; Longtine et al. Yeast 14(10):953-961, 1998) and transformed into yeast using lithium acetate-based transformation (Gietz et al. Methods Mol. Biol. 1205:1-12, 2014). The yap1::his3 deletion strain was selected on media lacking histidine and flr1::NAT on plates containing 100 μg/mL nourseothricin. All strains were confirmed by diagnostic PCR. Strain W303 pdr1Δ pdr3Δ was constructed from W303-1A (American Type Culture Collection (ATCC) 208352) by deleting PDR1 and PDR3 with kan-MX6 cassettes separately in MATa and MATα W303a isolates, mating, sporulating, and identifying the double deletion haploids by tetrad dissection and identification of non-parental ditype tetrads. Strain W-erg3 was derived from W303 pdr1Δ pdr3 by deleting SNQ2 with NAT-MX6, YAP1 with HIS3-MX6, and ERG3 with BleMX. […]
as §1

COc1ccc(-c2noc(C3CCN(C(=O)CNC(=O)c4ccccc4)CC3)n2)cc1OC [Compound 1, N-(2-(4-(3-(3,4-dimethoxyphenyl)-1,2,4-oxadiazol-5-yl)piperidin-1-yl)-2-oxoethyl)benzamide]
rescue dose-response in ApoE4 model (OD600) [1]: bell-shaped dose-response curve
growth in control (non-inducing) condition (Ole1/SCD): growth decreased at this same concentration

Reference: patent US20200222400A1, “METHODS FOR THE TREATMENT OF NEUROLOGICAL DISORDERS” (Yumanity Therapeutics, Inc., priority 2019, published 2020)
